Literature values, collected in patent US20240252447A1 (Ovid Therapeutics Inc., priority 2019, published 2024).

Columns and labels:
[1] = system: sleep onset and sleep maintenance; details: three-month efficacy study, insomnia
[2] = patients with a history of drug abuse

Oc1noc2c1CCNC2 [Gaboxadol, 4,5,6,7-tetrahydroisoxazolo [5,4-c]pyridine-3-ol]
effects in sleep onset and sleep maintenance [1]: failed to show significant effects in sleep onset and sleep maintenance | psychiatric adverse events [2]: steep increase in psychiatric adverse events | time to peak concentration (conventional pharmaceutical formulations such as tablets and capsules): ≤ 30 min | half-life (t1/2) (plasma half-life): 1.5 to 2 h
